Each structure is given as a SMILES string.

One may read the IC50 as the concentration needed to halve the response being measured. A high value points to a need for much substance.

The assay deals with T1, Pantetheinase (Homo sapiens, UniProt O95497).
T1 sequence (O95497 whole entry): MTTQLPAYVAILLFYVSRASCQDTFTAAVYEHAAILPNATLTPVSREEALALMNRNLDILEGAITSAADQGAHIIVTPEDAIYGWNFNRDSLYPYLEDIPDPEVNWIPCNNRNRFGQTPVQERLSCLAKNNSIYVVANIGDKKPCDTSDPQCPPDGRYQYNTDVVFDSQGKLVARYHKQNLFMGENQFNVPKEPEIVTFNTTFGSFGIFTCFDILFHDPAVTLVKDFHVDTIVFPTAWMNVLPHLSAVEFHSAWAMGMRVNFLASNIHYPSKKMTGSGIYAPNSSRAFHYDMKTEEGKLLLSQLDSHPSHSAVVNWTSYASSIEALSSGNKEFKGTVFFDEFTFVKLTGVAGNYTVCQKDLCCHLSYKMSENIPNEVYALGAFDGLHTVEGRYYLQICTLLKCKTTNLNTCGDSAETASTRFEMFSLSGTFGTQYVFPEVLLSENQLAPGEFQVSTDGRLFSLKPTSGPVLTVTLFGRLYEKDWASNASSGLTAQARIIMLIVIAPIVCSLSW
Description: Inhibition of human vanin-1 in whole blood. In kind it is tissue-based.
For `CN(C(=O)[C@@H]1CCCO1)[C@H]1CCN(C(=O)c2ccc(NC(C)(C)C)nc2)C1`, the IC50 amounted to 2.7 nM. As to `CCC(C)(C)Nc1ccc(C(=O)N2CC[C@H](N(C)C(C)=O)C2)cn1`, the IC50 worked out at 3.1 nM.

In the case of `CC(C)(C)Nc1ccc(C(=O)N2CC[C@H](N3CCOC3=O)C2)cn1`, the IC50 was 4 nM. The IC50 values of the last two compounds are within 1.5-fold of each other. `CC(C)(C)Nc1ccc(C(=O)N2CC(C)(c3ccccn3)C2)cn1` gave an IC50 of 2.7 nM. In the case of `CN(C(=O)C1CC(F)(F)C1)[C@H]1CCN(C(=O)c2ccc(NC(C)(C)C)nc2)C1` it was 3.6 nM; in that of `CC(=O)N(C)[C@H]1CCN(C(=O)c2ccc(NC(C)(C)CCO)nc2)C1`, 1.6 nM.
